ChEMBL document CHEMBL1201862, “PubChem BioAssay data set” (2004)
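Dose response: 5 concentrations. Exposure: 48 h. Format: 96-well plates. Endpoint: linear interpolation; highest concentration if not reached. Here, GI50 denotes the concentration required for 50% inhibition of growth.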 Activity calls are given as the source filed them. No stated cut-off is given here; in the data, active = GI50 up to about 1.1 µM and inactive = higher.

Tests used:
Assay in all cases: inhibition of tumour cell growth, NCI panel, 48 h
KM12 = system: KM12
IGROV-1 = system: IGROV-1
M14 = system: M14
SN12C = system: SN12C
HCC 2998 = system: HCC 2998
SNB-75 = system: SNB-75
OVCAR-3 = system: OVCAR-3
RXF 393 = system: RXF 393
U-251 = system: U-251
OVCAR-5 = system: OVCAR-5
SK-MEL-28 = system: SK-MEL-28
NCI-H522 = system: NCI-H522
TK-10 = system: TK-10
SK-OV-3 = system: SK-OV-3
SW-620 = system: SW-620
EKVX = system: EKVX

Measured: GI50

COc1ccc2oc(-c3ccncc3)cc(=O)c2c1
inactive: KM12 84.5 µM | IGROV-1 82 µM | M14 > 100 µM | SN12C 38.7 µM | HCC 2998 > 100 µM | SNB-75 > 100 µM | OVCAR-3 > 100 µM | RXF 393 > 100 µM | U-251 73.3 µM | OVCAR-5 > 100 µM | SK-MEL-28 > 100 µM

N#Cc1ccc(/C=C(/C(=O)c2ccccc2)c2ccccc2)cc1
inactive: KM12 3.24 µM | NCI-H522 8.41 µM | IGROV-1 23.7 µM | TK-10 24 µM | M14 13.3 µM | SN12C 9.66 µM | SK-OV-3 20.5 µM | HCC 2998 16.9 µM | SNB-75 27.2 µM | OVCAR-3 16.1 µM | RXF 393 17.8 µM | U-251 12.4 µM | SW-620 2.64 µM | EKVX 18.8 µM | OVCAR-5 18 µM | SK-MEL-28 15.8 µM

O=C(NCCc1ccccc1)C1C(=O)C(=O)N(CCc2ccccc2)C1=O (stereo not given)
inactive: KM12 > 100 µM | NCI-H522 > 100 µM | IGROV-1 > 100 µM | TK-10 > 100 µM | M14 > 100 µM | SN12C > 100 µM | SK-OV-3 48.4 µM | SNB-75 > 100 µM | OVCAR-3 > 100 µM | U-251 > 100 µM | SW-620 > 100 µM | EKVX > 100 µM | SK-MEL-28 > 100 µM

NNC(=S)N/N=C(\CCCC(=O)NCCc1ccccc1)CC(=O)c1ccccc1
inactive: KM12 > 100 µM | NCI-H522 > 100 µM | IGROV-1 > 100 µM | TK-10 > 100 µM | M14 > 100 µM | SN12C > 100 µM | HCC 2998 > 100 µM | OVCAR-3 > 100 µM | RXF 393 > 100 µM | U-251 > 100 µM | SW-620 > 100 µM | EKVX > 100 µM | OVCAR-5 > 100 µM | SK-MEL-28 > 100 µM

O=C(c1cccs1)N(C(=S)N1CCN(c2ccccc2)CC1)C1CCCCC1
inactive: KM12 > 100 µM | NCI-H522 > 100 µM | IGROV-1 > 100 µM | TK-10 > 100 µM | M14 > 100 µM | SN12C > 100 µM | SK-OV-3 > 100 µM | SNB-75 > 100 µM | OVCAR-3 > 100 µM | RXF 393 > 100 µM | U-251 > 100 µM | SW-620 > 100 µM | OVCAR-5 > 100 µM | SK-MEL-28 > 100 µM

O=C(O)CN1CCSc2ccccc2CN(CC(=O)O)CCSc2ccccc2C1
inactive: KM12 > 100 µM | NCI-H522 > 100 µM | IGROV-1 > 100 µM | TK-10 > 100 µM | M14 > 100 µM | SN12C > 100 µM | SK-OV-3 > 100 µM | HCC 2998 > 100 µM | SNB-75 > 100 µM | OVCAR-3 > 100 µM | U-251 > 100 µM | SW-620 > 100 µM | EKVX > 100 µM | OVCAR-5 > 100 µM | SK-MEL-28 > 100 µM

CC(=O)O[C@H]1CC[C@@]2(C)C(=CC[C@H]3C4=CC=C(C(C)=O)[C@@]4(C)CCC32)C1 (stereo not given in full)
inactive: KM12 19.9 µM | NCI-H522 20 µM | IGROV-1 56.2 µM | TK-10 23.7 µM | M14 33.7 µM | SN12C 34.7 µM | SK-OV-3 > 100 µM | HCC 2998 48.4 µM | SNB-75 31.1 µM | OVCAR-3 35.9 µM | RXF 393 26.5 µM | U-251 35.7 µM | SW-620 20.9 µM | EKVX 13.1 µM | OVCAR-5 27.9 µM | SK-MEL-28 31 µM

COc1cccc(NC(=O)CC(=O)N2N=C(N(CCC#N)c3ccccc3C)CC2c2ccccc2)c1 (stereo not given)
inactive: KM12 > 100 µM | NCI-H522 > 100 µM | IGROV-1 > 100 µM | M14 > 100 µM | SN12C > 100 µM | SK-OV-3 > 100 µM | HCC 2998 > 100 µM | SNB-75 > 100 µM | OVCAR-3 > 100 µM | RXF 393 > 100 µM | U-251 > 100 µM | SW-620 > 100 µM | EKVX > 100 µM | OVCAR-5 > 100 µM | SK-MEL-28 > 100 µM

COc1ccc(OC(C)C(=O)O)c2c(=O)ccccc12 (stereo not given)
inactive: KM12 > 100 µM | NCI-H522 > 100 µM | IGROV-1 > 100 µM | TK-10 > 100 µM | M14 > 100 µM | SN12C > 100 µM | SK-OV-3 > 100 µM | HCC 2998 > 100 µM | SNB-75 > 100 µM | OVCAR-3 > 100 µM | RXF 393 > 100 µM | U-251 > 100 µM | SW-620 > 100 µM | EKVX > 100 µM | OVCAR-5 > 100 µM | SK-MEL-28 > 100 µM

COc1ccc2c(c1O)C(=O)C(CCC(=O)O)CC2 (stereo not given)
inactive: IGROV-1 > 100 µM | TK-10 > 100 µM | M14 > 100 µM | SN12C > 100 µM | SK-OV-3 > 100 µM | HCC 2998 > 100 µM | SNB-75 > 100 µM | OVCAR-3 > 100 µM | RXF 393 > 100 µM | U-251 > 100 µM | SW-620 > 100 µM | EKVX > 100 µM | SK-MEL-28 > 100 µM

O=P(Nc1ccccc1)(Oc1ccccc1)N(CCCl)CCCl (stereo not given)
inactive: KM12 65.8 µM | NCI-H522 14 µM | IGROV-1 > 100 µM | TK-10 > 100 µM | M14 91.8 µM | SN12C > 100 µM | SK-OV-3 23.1 µM | HCC 2998 > 100 µM | SNB-75 > 100 µM | OVCAR-3 > 100 µM | U-251 > 100 µM | SW-620 > 100 µM | EKVX > 100 µM | OVCAR-5 > 100 µM | SK-MEL-28 > 100 µM

C[C@]12C/C(=C/O)C(=O)C(O)=C1CC[C@@H]1C2CC[C@@]2(C)C1CC[C@@H]2O (stereo not given in full)
inactive: KM12 25.6 µM | NCI-H522 15.6 µM | IGROV-1 21.7 µM | TK-10 42.1 µM | M14 17.9 µM | SN12C 25.9 µM | SK-OV-3 27.5 µM | SNB-75 20.4 µM | OVCAR-3 17.9 µM | RXF 393 20.7 µM | U-251 > 10 µM | SW-620 37 µM | EKVX 26.3 µM | OVCAR-5 21 µM | SK-MEL-28 21.5 µM

O=C1CC2(CCC3=C(O2)c2ccccc2NC(=O)C3)C(=O)c2ccccc2N1 (stereo not given)
inactive: KM12 > 100 µM | NCI-H522 > 100 µM | IGROV-1 > 100 µM | TK-10 > 100 µM | M14 > 100 µM | SN12C > 100 µM | SNB-75 22.2 µM | OVCAR-3 > 100 µM | RXF 393 > 100 µM | U-251 > 100 µM | SW-620 > 100 µM | EKVX > 100 µM | OVCAR-5 > 100 µM | SK-MEL-28 > 100 µM

O=C1c2ccccc2C(=O)c2c1ccc1c2N=C(c2ccc(Br)cc2)CC(c2cccc3ccccc23)N1 (stereo not given)
inactive: KM12 > 100 µM | NCI-H522 > 100 µM | IGROV-1 > 100 µM | TK-10 > 100 µM | M14 > 100 µM | SN12C > 100 µM | SK-OV-3 > 100 µM | HCC 2998 > 100 µM | SNB-75 94.6 µM | OVCAR-3 > 100 µM | RXF 393 > 100 µM | U-251 > 100 µM | SW-620 > 100 µM | EKVX > 100 µM | OVCAR-5 > 100 µM | SK-MEL-28 > 100 µM

COc1cc(CC2c3cc(OC)c(OC)cc3CCN2C)c(Oc2cc3c(cc2OC)-c2c(OC)c(OC)c(OC)c4c2C(C3)N(C)CC4)cc1OC (stereo not given)
inactive: KM12 12.7 µM | NCI-H522 11.7 µM | IGROV-1 14.3 µM | TK-10 15.4 µM | M14 2.4 µM | SN12C 14 µM | SK-OV-3 19.7 µM | HCC 2998 5.32 µM | SNB-75 11.4 µM | OVCAR-3 12.3 µM | RXF 393 2.9 µM | U-251 12.6 µM | SW-620 15.6 µM | EKVX 16.6 µM | OVCAR-5 16.2 µM | SK-MEL-28 9.64 µM

Cc1cccc(=O)c([O-])c1.Cc1cccc(=O)c([O-])c1.[Bi+3].[Cl-]
inactive: KM12 11.6 µM | NCI-H522 2.03 µM | IGROV-1 12.3 µM | TK-10 17.5 µM | M14 7.55 µM | SN12C 11.8 µM | SK-OV-3 22.5 µM | HCC 2998 11.5 µM | SNB-75 10 µM | OVCAR-3 2.74 µM | RXF 393 8.39 µM | U-251 11.5 µM | SW-620 5.47 µM | EKVX 15.9 µM | OVCAR-5 14.9 µM | SK-MEL-28 5.94 µM

CC(C)CCCC(C)[C@H]1CCC2[C@@H]3CCC4Nc5nocc5C[C@]4(C)C3CC[C@@]21C (stereo not given in full)
inactive: KM12 19.9 µM | NCI-H522 3.15 µM | IGROV-1 25.6 µM | TK-10 8.07 µM | M14 16.3 µM | SN12C 18.1 µM | SK-OV-3 19.4 µM | HCC 2998 15.5 µM | SNB-75 15.6 µM | OVCAR-3 5.61 µM | RXF 393 14.8 µM | U-251 15.7 µM | SW-620 15.1 µM | EKVX 16.1 µM | OVCAR-5 > 10 µM

COc1ccc(OC)c(CC(C)N)c1 (stereo not given)
inactive: KM12 > 100 µM | NCI-H522 > 100 µM | IGROV-1 > 100 µM | TK-10 > 100 µM | M14 > 100 µM | SN12C > 100 µM | SK-OV-3 > 100 µM | HCC 2998 > 100 µM | SNB-75 > 100 µM | OVCAR-3 > 100 µM | RXF 393 > 100 µM | U-251 > 100 µM | SW-620 > 100 µM | EKVX > 100 µM | SK-MEL-28 > 100 µM
